The target in data set [1] is T1, Coagulation factor XI (Homo sapiens, UniProt P03951). To be noted: dose 50.0 nM, time 1.0 hrs.
The species named for data set [2] is Homo sapiens. In words: Selectivity index, ratio of IC50 for plasma kallikrein (unknown origin) to IC50 for coagulation factor XIa (unknown origin).
Data set [3] concerns the target Plasma kallikrein (Homo sapiens, UniProt P03952). Briefly: Inhibition of plasma kallikrein (unknown origin) assessed as chromogenic substrate hydrolysis using CS-31(02) as substrate incubated for 1 hr by spectrophotometer based microplate reader method.
The target of data set [4] is T1, Coagulation factor XI. In words: Inhibition of coagulation factor XIa (unknown origin) assessed as chromogenic substrate hydrolysis using CS-21(66) as substrate incubated for 1 hr by spectrophotometer based microplate reader method.
Data set [5] can be described thus: Toxicity in C57BL/6J mouse assessed as bleeding risk at 60 to 100 mg/kg, iv measured after 15 mins by tail transection assay. The format is organism-based. The conditions noted are these: in vivo, 0.25 h, dose 60-100 mg/kg.
Data set [6] can be described thus: Toxicity in C57BL/6J mouse assessed as bleeding risk at 20 mg/kg, iv measured after 15 mins by tail transection assay. The format is organism-based. To be noted: in vivo, 0.25 h.
A short description of data set [7]: Toxicity in C57BL/6J mouse assessed as bleeding risk at 35 mg/kg, iv measured after 15 mins by tail transection assay. The data set is classed as organism-based. The conditions noted are these: in vivo, 0.25 h.

Here are results for 38 molecules from ChEMBL document CHEMBL5046289, “Targeting the S2 Subsite Enables the Structure-Based Discovery of Novel Highly Selective Factor XIa Inhibitors” (J Med Chem, 2022).

Plasma kallikrein, sequence (P03952 20-390 limits assumed): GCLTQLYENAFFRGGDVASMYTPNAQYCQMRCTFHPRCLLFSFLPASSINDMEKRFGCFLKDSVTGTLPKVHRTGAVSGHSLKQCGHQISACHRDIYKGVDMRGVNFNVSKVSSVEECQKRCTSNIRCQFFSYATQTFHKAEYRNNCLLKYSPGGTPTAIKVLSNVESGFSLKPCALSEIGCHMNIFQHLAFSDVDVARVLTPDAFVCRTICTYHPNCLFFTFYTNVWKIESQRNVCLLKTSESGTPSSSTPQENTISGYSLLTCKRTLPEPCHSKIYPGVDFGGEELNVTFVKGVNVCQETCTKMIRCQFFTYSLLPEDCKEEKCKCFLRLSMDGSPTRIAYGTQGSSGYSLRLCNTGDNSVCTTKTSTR
Plasma kallikrein, sequence (P03952 391-638 limits assumed): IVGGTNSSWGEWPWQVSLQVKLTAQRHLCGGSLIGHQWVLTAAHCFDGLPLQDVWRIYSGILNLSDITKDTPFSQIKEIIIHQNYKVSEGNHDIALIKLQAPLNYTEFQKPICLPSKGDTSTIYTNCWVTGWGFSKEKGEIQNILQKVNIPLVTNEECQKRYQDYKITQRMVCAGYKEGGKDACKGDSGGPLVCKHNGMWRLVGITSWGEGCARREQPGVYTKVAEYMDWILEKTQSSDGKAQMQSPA
T1 sequence (P03951 19-387 limits assumed): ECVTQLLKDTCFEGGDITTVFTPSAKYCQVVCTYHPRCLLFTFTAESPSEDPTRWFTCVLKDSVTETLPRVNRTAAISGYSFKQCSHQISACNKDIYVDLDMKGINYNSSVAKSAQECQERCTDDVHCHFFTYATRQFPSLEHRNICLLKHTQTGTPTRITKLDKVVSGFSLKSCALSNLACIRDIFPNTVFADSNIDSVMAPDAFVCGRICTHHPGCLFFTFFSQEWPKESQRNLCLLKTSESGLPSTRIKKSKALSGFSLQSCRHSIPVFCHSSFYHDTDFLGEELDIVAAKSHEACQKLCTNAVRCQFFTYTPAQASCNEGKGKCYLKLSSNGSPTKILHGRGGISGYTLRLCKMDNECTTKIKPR
T1 sequence (P03951 388-625 limits assumed): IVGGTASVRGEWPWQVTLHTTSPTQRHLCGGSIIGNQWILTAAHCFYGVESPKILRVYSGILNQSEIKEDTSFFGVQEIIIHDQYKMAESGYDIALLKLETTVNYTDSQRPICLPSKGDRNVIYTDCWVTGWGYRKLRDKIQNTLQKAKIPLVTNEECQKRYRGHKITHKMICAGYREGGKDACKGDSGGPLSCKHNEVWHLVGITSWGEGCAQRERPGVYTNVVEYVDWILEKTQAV

On to `O=C(/C=C/c1cc(Cl)ccc1-n1cnnn1)N[C@@H](CC(=O)N1CCN(Cc2ccccc2)CC1)C(=O)Nc1ccc(C(=O)O)cc1`, for which the inhibition in data set [1] turned out to be 53.3%. Also, in data set [2], the Ratio IC50 was 35. In addition, the figures for the half-inhibitory concentration (IC50) in data set [3] and in data set [4] were 1060 nM and 30.2 nM, respectively.

As for `CN1CCN(C(=O)C[C@H](NC(=O)/C=C/c2cc(Cl)ccc2-n2cnnn2)C(=O)Nc2ccc(C(=O)O)cc2)CC1`, the inhibition in data set [1] stood at 17.2%.

For `CC1CCN(C(=O)CC[C@H](NC(=O)/C=C/c2cc(Cl)ccc2-n2cnnn2)C(=O)Nc2ccc(C(=O)O)cc2)CC1`, the inhibition in data set [1] stood at 3.1%.

`O=C(/C=C/c1cc(Cl)ccc1-n1cnnn1)N[C@@H](CC(=O)N1CCCN(CC2CC2)CC1)C(=O)Nc1ccc(C(=O)O)cc1`: the inhibition in data set [1] came out at 34.7%. Moreover, the Ratio IC50 in data set [2] is 21. Further, the figures for the half-inhibitory concentration (IC50) in data set [3] and in data set [4] were 1400 nM and 67.1 nM, respectively.

Turning to `CCCCN1CCN(C(=O)C[C@H](NC(=O)/C=C/c2cc(Cl)ccc2-n2cnnn2)C(=O)Nc2ccc(C(=O)O)cc2)CC1`, in data set [1], the inhibition was 51.5%. Also, the values for the IC50 in data set [3] and in data set [4] were 510 nM and 7.7 nM, respectively.

In data set [1], `O=C(CN(Cc1ccccc1)C(=O)/C=C/c1cccc(Cl)c1)Nc1ccc(C(=O)O)cc1` gave an inhibition of 7.9%.

As to `CCCCN1CCN(C(=O)CC[C@H](NC(=O)/C=C/c2cc(Cl)ccc2-n2cnnn2)C(=O)Nc2ccc(C(=O)O)cc2)CC1`, the inhibition in data set [1] came out at 39.3%. The Ratio IC50 in data set [2] turned out to be 30. The IC50 in data set [3] was found to be 2700 nM.

`O=C(/C=C/c1cc(Cl)ccc1-n1cnnn1)N[C@@H](CCC(=O)N1CCC(O)CC1)C(=O)Nc1ccc(C(=O)O)cc1`: the inhibition in data set [1] is 20.9%.

Take `Cc1ccc(CN(CC(=O)Nc2ccc(C(=O)O)cc2)C(=O)/C=C/c2cc(Cl)ccc2-n2cnnn2)cc1`: in data set [1], the inhibition is under 5%.

In turn, `CC(=O)N1CCN(C(=O)C[C@H](NC(=O)/C=C/c2cc(Cl)ccc2-n2cnnn2)C(=O)Nc2ccc(C(=O)O)cc2)CC1` came in with an inhibition in data set [1] of 23.2%. Besides, in data set [2], the Ratio IC50 was found to be 226. Also, the values for the IC50 in data set [3] and in data set [4] were 17300 nM and 76.5 nM, respectively.

In data set [1], `CC(C)N1CCN(C(=O)CC[C@H](NC(=O)/C=C/c2cc(Cl)ccc2-n2cnnn2)C(=O)Nc2ccc(C(=O)O)cc2)CC1` showed an inhibition of 20.9%. For the same molecule, the IC50 in data set [4] came to 73.5 nM.

Consider `O=C(/C=C/c1cc(Cl)ccc1-n1cnnn1)NCC(=O)Nc1ccc(C(=O)O)cc1`, for which the inhibition in data set [1] is under 5%.

`CCc1ccc(CN(CC(=O)Nc2ccc(C(=O)O)cc2)C(=O)/C=C/c2cc(Cl)ccc2-n2cnnn2)cc1`: the inhibition in data set [1] was 3.6%.

In the case of `Cc1ccc(CN2CCN(C(=O)CC[C@H](NC(=O)/C=C/c3cc(Cl)ccc3-n3cnnn3)C(=O)Nc3ccc(C(=O)O)cc3)CC2)cc1`, the inhibition in data set [1] was 19.4%.

For `O=C(/C=C/c1cc(Cl)ccc1-n1cnnn1)N[C@@H](CCC(=O)N1CCS(=O)(=O)CC1)C(=O)Nc1ccc(C(=O)O)cc1`, in data set [1], the inhibition was 2.6%.

`COc1ccc(CN(CC(=O)Nc2ccc(C(=O)O)cc2)C(=O)/C=C/c2cc(Cl)ccc2-n2cnnn2)cc1` returned an inhibition in data set [1] of 8.9%.

Regarding `O=C(/C=C/c1cc(Cl)ccc1-n1cnnn1)N[C@@H](CCC(=O)N1CCN(Cc2cccc(Cl)c2)CC1)C(=O)Nc1ccc(C(=O)O)cc1`, in data set [1], the inhibition was determined as 3.8%.

For `O=C(/C=C/c1cc(Cl)ccc1-n1cnnn1)N[C@@H](CCC(=O)N1CCSCC1)C(=O)Nc1ccc(C(=O)O)cc1`, in data set [1], the inhibition was 21.9%. In data set [2], the Ratio IC50 came out at 50. The IC50 in data set [3] was 6700 nM; in data set [4] it was 132 nM.

`O=C(/C=C/c1cc(Cl)ccc1-n1cnnn1)N[C@@H](CC(=O)N1CCN(CC2CC2)CC1)C(=O)Nc1ccc(C(=O)O)cc1` gave an inhibition in data set [1] of 65.7%. Also, in data set [2], the Ratio IC50 is 77. In addition, the values for the concentration for half-maximal inhibition (IC50) in data set [3] and in data set [4] were 600 nM and 7.8 nM, respectively.

`O=C(/C=C/c1cc(Cl)ccc1-n1cnnn1)N[C@@H](CCC(=O)N1CCN(CC2CC2)CC1)C(=O)Nc1ccc(C(=O)O)cc1`: in data set [1], the inhibition turned out to be 41.7%. In addition, the Ratio IC50 in data set [2] turned out to be 42. The IC50 in data set [3] was determined as 3100 nM.

Take `O=C(O)C[C@H](NC(=O)/C=C/c1cc(Cl)ccc1-n1cnnn1)C(=O)Nc1ccc(C(=O)O)cc1`: the inhibition in data set [1] was determined as 2.1%.

For `O=C(/C=C/c1cc(Cl)ccc1-n1cnnn1)N[C@@H](CC(=O)N1CCCCC1)C(=O)Nc1ccc(C(=O)O)cc1`, the inhibition in data set [1] was 15.9%.

Molecule `COc1ccc(CN(CC(=O)Nc2ccc(C(=O)O)cc2)C(=O)/C=C/c2cccc(Cl)c2)cc1` gave an inhibition in data set [1] of under 5%.

As to `CC1CCN(C(=O)C[C@H](NC(=O)/C=C/c2cc(Cl)ccc2-n2cnnn2)C(=O)Nc2ccc(C(=O)O)cc2)CC1`, in data set [1], the inhibition stood at 3.6%.

For the molecule `O=C(/C=C/c1cc(Cl)ccc1-n1cnnn1)N[C@@H](CCC(=O)N1CCCCC1)C(=O)Nc1ccc(C(=O)O)cc1`, the inhibition in data set [1] was determined as 16.1%.

For the molecule `CN1CCN(C(=O)CC[C@H](NC(=O)/C=C/c2cc(Cl)ccc2-n2cnnn2)C(=O)Nc2ccc(C(=O)O)cc2)CC1`, the inhibition in data set [1] was 20.5%. Also, the IC50 in data set [4] came to 737 nM.

With `CN(C)C1CCN(C(=O)CC[C@H](NC(=O)/C=C/c2cc(Cl)ccc2-n2cnnn2)C(=O)Nc2ccc(C(=O)O)cc2)CC1`, the inhibition in data set [1] was found to be 7.5%.

In turn, `O=C(CN(Cc1ccccc1)C(=O)/C=C/c1cc(Cl)ccc1-n1cnnn1)Nc1ccc(C(=O)O)cc1` had an inhibition in data set [1] of 15.3%.

`O=C(/C=C/c1cc(Cl)ccc1-n1cnnn1)N[C@@H](CC(=O)N1CCC(O)CC1)C(=O)Nc1ccc(C(=O)O)cc1` displayed an inhibition in data set [1] of 12.3%.

Regarding `CCN1CCN(C(=O)C[C@H](NC(=O)/C=C/c2cc(Cl)ccc2-n2cnnn2)C(=O)Nc2ccc(C(=O)O)cc2)CC1`, the inhibition in data set [1] stood at 45.5%. Also, in data set [2], the Ratio IC50 is 106. Moreover, the IC50 in data set [3] came to 2700 nM; in data set [4], 25.5 nM.

Take `O=C(CN(Cc1ccc(F)cc1)C(=O)/C=C/c1cc(Cl)ccc1-n1cnnn1)Nc1ccc(C(=O)O)cc1`: the inhibition in data set [1] worked out at 7.2%.

Regarding `O=C(/C=C/c1cc(Cl)ccc1-n1cnnn1)N[C@@H](CC(=O)N1CCN(CCO)CC1)C(=O)Nc1ccc(C(=O)O)cc1`, the inhibition in data set [1] came out at 60.2%. Also, the Ratio IC50 in data set [2] is 295. The IC50 in data set [3] is 3400 nM; in data set [4] it was 11.5 nM.

Regarding `O=C(/C=C/c1cc(Cl)ccc1-n1cnnn1)N[C@@H](Cc1ccccc1)C(=O)Nc1ccc(C(=O)O)cc1`, the Activity result was “Toxic” in data set [5], “Non-Toxic” in data set [6] and “Non-Toxic” in data set [7].

In the case of `Cc1ccc(CN2CCN(C(=O)C[C@H](NC(=O)/C=C/c3cc(Cl)ccc3-n3cnnn3)C(=O)Nc3ccc(C(=O)O)cc3)CC2)cc1`, the inhibition in data set [1] was determined as 43.5%. For the same molecule, the Ratio IC50 in data set [2] is 45. The IC50 in data set [3] came to 1200 nM; in data set [4] it was 26.5 nM.

In data set [1], `CC(C)N1CCN(C(=O)C[C@H](NC(=O)/C=C/c2cc(Cl)ccc2-n2cnnn2)C(=O)Nc2ccc(C(=O)O)cc2)CC1` came in with an inhibition of 44%. The Ratio IC50 in data set [2] was found to be 16. Besides, the IC50 turned out to be 490 nM in data set [3] and 31.2 nM in data set [4].

In data set [1], `O=C(O)CC[C@H](NC(=O)/C=C/c1cc(Cl)ccc1-n1cnnn1)C(=O)Nc1ccc(C(=O)O)cc1` yielded an inhibition of 6.6%.

Consider `CCN1CCN(C(=O)CC[C@H](NC(=O)/C=C/c2cc(Cl)ccc2-n2cnnn2)C(=O)Nc2ccc(C(=O)O)cc2)CC1`, for which, in data set [1], the inhibition stood at 17.2%. In addition, in data set [4], the 50% inhibitory concentration (IC50) is 89.4 nM.

Regarding `CN1CCCN(C(=O)CC[C@H](NC(=O)/C=C/c2cc(Cl)ccc2-n2cnnn2)C(=O)Nc2ccc(C(=O)O)cc2)CC1`, the inhibition in data set [1] was found to be 30.1%.

For orientation: inhibition means the share of the control response that was lost under treatment. A higher inhibition goes with strong suppression. A word on the IC50: it is the point on the concentration scale where inhibition reaches its midpoint.
